Patent publication US8119614B2, “Substitution derivatives of N6-benzyladenosine, methods of their preparation, their use for preparation of drugs, cosmetic preparations and growth regulators, pharmaceutical preparations, cosmetic preparations and growth regulators containing these compounds” (Ustav Experimentalni Botaniky Akademie Ved Ceske Republiky, priority 2002, dated 2012)

Tests used:
HOS = assay: In vitro cytotoxic activity, Calcein AM assay, HOS; format: cell-based; conditions: 72 hours
[1] = test system: human erythroleukaemia K562; assay: In vitro cytotoxic activity, Calcein AM assay, K-562; format: cell-based; conditions: 72 hours, read-out: IC 50 K-562
Text: (§1) One of the parameters used, as the basis for cytotoxicity assays, is the metabolic activity of viable cells. For example, a microtiter assay, which uses the Calcein AM, is now widely used to quantitate cell proliferation and cytotoxicity. For instance, this assay is used in drug screening programs and in chemosensitivity testing. Because only metabolically active cells cleave Calcein AM, these assays detect viable cells exclusively. The quantity of reduced Calcein AM corresponds to the number of vital cells in the culture.
(§2) Human T-lymphoblastic leukemia cell line CEM; promyelocytic HL-60 and monocytic U937 leukemias; breast carcinoma cell lines MCF-7; cervical carcinoma cells HELA; mouse fibroblasts NIH3T3; human erythroleukaemia K562 and human malignant melanoma cells G361 were used for routine screening of compounds. The cells were maintained in Nunc/Corning 80 cm^2 plastic tissue culture flasks and cultured in cell culture medium (DMEM with 5 g/l glucose, 2 mM glutamine, 100 U/ml penicillin, 100 μg/ml streptomycin, 10% fetal calf serum and sodium bicarbonate).
(§3) The cell suspensions that were prepared and diluted according to the particular cell type and the expected target cell density (10^4 cells per well based on cell growth characteristics) were added by pipette (80 μl) into 96/well microtiter plates. Inoculates were allowed a pre-incubation period of 24 hours at 37° C. and 5% CO2 for stabilisation. Four-fold dilutions of the intended test concentration were added at time zero in 20 μl aliquots to the microtiter plate wells. Usually, test compound was evaluated at six 4-fold dilutions. In routine testing, the highest well concentration was 166.7 μM, but it can be the matter of change dependent on the agent. All drug concentrations were examined in duplicates. Incubations of cells with the test compounds lasted for 72 hours at 37° C., in 5% CO2 atmosphere and 100% humidity. At the end of incubation period, the cells were assayed by using the Calcein AM. Ten microliters of the stock solution were pipetted into each well and incubated further for 1 hours. Fluorescence (FD) was measured with the Labsystem FIA Reader Fluoroscan Ascent (UK). The tumour cell survival (GI50) was calculated using the following equitation: GI50=(FDdrug exposed well/mean FDcontrol wells)×100%. The GI50 value, the drug concentration lethal to 50% of the tumour cells, was calculated from the obtained dose response curves (FIG. 3).

[2] = test system: breast carcinoma cell lines MCF-7; assay: In vitro cytotoxic activity, Calcein AM assay, MCF7; format: cell-based, human; conditions: 72 hours, read-out: IC 50 MCF7
Text: as §1, §2, §3

mouse fibroblasts NIH3T3 = assay: In vitro cytotoxic activity, Calcein AM assay, NIH-3T3; format: cell-based; conditions: 72 hours, read-out: IC 50 NIH-3T3
Text: as §1, §2, §3

promyelocytic HL-60 = assay: In vitro cytotoxic activity, Calcein AM assay, HL60; format: cell-based, human; conditions: 72 hours, read-out: IC 50 HL60
Text: as §1, §2, §3

[3] = test system: Triticum aestivum cv. Hereward; assay: Senescence inhibition on winter wheat leaf segments (chlorophyll retention); format: in vivo; conditions: for Concentration with highest activity: chlorophyll retention in excised wheat leaf tips, 96 h dark; for Activity (%) [10^−4 mol · l^−1 BAP = 100%]: chlorophyll retention, at concentration with highest activity
Description: Seeds of winter wheat, Triticum aestivum cv. Hereward, were washed under running water for 24 hours and then sown on vermiculite soaked with Knop's solution. They were placed in the grown chamber at 15° C. with a 16/8 h light period at 50 μmol·m^−2·s^−1. After 7 days, the first leaf was fully developed and the second leaf had started to grow. A tip section of the first leaf, approximately 35 mm long, was removed from 5 seedlings and trimmed slightly to a combined weight of 100 mg. The basal ends of the five leaf tips were placed in the wells of a microtiter polystyrene plate containing 150 μl of a cytokinin solution each. The entire plate was inserted into a plastic box lined with paper tissues soaked in distilled water to prevent leaf sections from drying out. After a 96 h incubation in the dark at 25° C., the leaves were removed and chlorophyll extracted by heating at 80° C. for 10 min in 5 ml of 80% ethanol (v/v). The sample volume was then restored to 5 ml by the addition of 80% ethanol (v/v). The absorbency of the extract was recorded at 665 nm. In addition, chlorophyll extracts from fresh leaves and leaf tips incubated in deionised water were measured. From the obtained data, the concentration with highest activity was selected for each compound tested. Relative activity of the compound at this concentration was calculated (Tab. 10). The activity obtained for 10^−4 M 6-benzylaminopurine (BAP) was postulated as 100%. The values shown are means of five replicates and the whole experiment was repeated twice. The cytokinins to be tested were dissolved in dimethylsulfoxide (DMSO) and the solution brought up to 10^−3M with distilled water. This stock was further diluted in distilled water to concentrations ranging from 10^−8M to 10^−4M.

[4] = test system: tobacco callus Nicotiana tabacum L. cv. Wisconsin 38; assay: Growth of cytokinin-dependent tobacco callus; format: cell-based; conditions: for Activity (%) [10^−5 mol · l^−1 BAP = 100%]: callus growth, at concentration with highest activity; for Concentration with highest activity: fresh callus weight after four weeks
Description: Cytokinin-dependent tobacco callus Nicotiana tabacum L. cv. Wisconsin 38 was maintained at 25° C. in darkness on modified Murashige-Skoog medium, containing per 1 liter: 4 μmol nicotinic acid, 2.4 μmol pyridoxine hydrochloride, 1.2 μmol thiamine, 26.6 μmol glycine, 1.37 μmol glutamine, 1.8 μmol myo-inositol, 30 g of sucrose, 8 g of agar, 5.37 μmol α-naphtylacetic acid (NAA) and 0.5 μmol benzylaminopurine (BAP). Subcultivation was carried out every three weeks. Fourteen days before the bioassay, the callus tissue was transferred to the media without 6-benzylaminopurine (BAP). Biological activity was determined from the increase in fresh callus weight after four weeks of cultivation. Five replicates were prepared for each cytokinin concentration and the entire test was repeated twice. From the obtained data, the concentration with highest activity was selected for each compound tested. Relative activity of the compound at this concentration was calculated (Tab. 6). […] The cytokinins to be tested were dissolved in dimethylsulfoxide (DMSO) and the solution brought up to 10^−3M with distilled water. This stock was further diluted in the respective media used for the biotest to concentrations ranging from 10^−8M to 10^−4M.

[5] = test system: Amaranthus caudatus cotyledon/hypocotyl explants; assay: Amaranthus bioassay (betacyanin content); format: in vivo; conditions: for Concentration with highest activity: 48 h dark; for Activity (%) [10^−5 mol · l^−1 BAP = 100%]: at concentration with highest activity
Description: Standard Amaranthus bioassay was performed with several modifications. The seeds of Amaranthus caudatus var. atropurpurea were surface-sterilised in 10% N-chlorobenzenesulfonamide (w/v) for 10 min and washed 5 times in deionized water. They were placed in 15 cm Petri dishes containing paper tissues saturated with deionized water. After 72 h of cultivation at 25° C. in darkness, the roots of the seedlings were cut off. The explants, consisting of two cotyledons and hypocotyls, were placed in 5 cm Petri dishes on two layers of filter paper soaked in 1 ml of incubation medium containing 10 μmol NA2HPO4-KH2PO4, pH 6.8, 5 μmol tyrosine and the cytokinin to be tested. There were 20 explants per dish. The procedure was carried out under a green safe light in a darkroom. After a 48 h of incubation at 25° C. in darkness, betacyanin was extracted by freezing the explants in 4 ml […] acetic acid. The concentration of betacyanin was determined by comparing the absorbance at 537 nm and 620 nm as follows: ΔA=[…]-[…]. From the obtained data, the concentration with highest activity was selected for each compound tested. Relative activity of the compound at this concentration was calculated (Tab. 12). […] The values shown in table 8 are means of five replicates and the entire test was repeated twice. The cytokinins to be tested were dissolved in dimethylsulfoxide (DMSO) and the solution brought up to 10^-3M with distilled water. This stock was further diluted in the respective media used for the biotest to concentrations ranging from 10^-8M to 10^-4M. […] From the data obtained (FIG. 14) the maximum effective concentration of the tested compound was calculated as well as its relative effectiveness at this concentration (Table 12). […]

[6] = test system: Human T-lymphoblastic leukemia cell line CEM; assay: In vitro cytotoxic activity, Calcein AM assay, CEM; format: cell-based; conditions: 72 hours
Text: as §1, §2, §3

SMILES | IC50 (HOS) [µM] | IC50 [1] [µM] | IC50 [2] [µM] | IC50 (mouse fibroblasts NIH3T3) [µM] | IC50 (promyelocytic HL-60) [µM] | Concentration with highest activity [3] | Activity (%) [10^−4 mol · l^−1 BAP = 100%] [3] [%] | Activity (%) [10^−5 mol · l^−1 BAP = 100%] [4] [%] | Concentration with highest activity [4] | Concentration with highest activity [5] | Activity (%) [10^−5 mol · l^−1 BAP = 100%] [5] [%] | IC50 [6] [µM]
OC[C@H]1O[C@@H](n2cnc3c(NCc4c(F)ccc(F)c4F)ncnc32)[C@H](O)[C@@H]1O [2,3,6-trifluorobenzylamino, 6-(2,3,6-trifluorobenzylamino)purine riboside] | > 167 | > 167 | > 167 | > 167 | 13 | 10^−4 mol · l^−1 | 133 ± 14 | 92 ± 2 | 10^−5 mol · l^−1 | 10^−4 mol · l^−1 | 94 ± 1 | 
OC[C@H]1O[C@@H](n2cnc3c(NCc4cc(F)c(F)cc4F)ncnc32)[C@H](O)[C@@H]1O [2,4,5-trifluorobenzylamino, 6-(2,4,5-trifluorobenzylamino)purine riboside] |  |  |  |  |  |  |  | 95 ± 3 | 10^−5 mol · l^−1 | 10^−4 mol · l^−1 | 120 ± 1 | 
OC[C@H]1O[C@@H](n2cnc3c(NCc4ccc(Cl)cc4Cl)ncnc32)[C@H](O)[C@@H]1O [2,4-dichlorobenzylamino, 6-(2,4-dichlorobenzylamino)purine riboside] | > 167 | 85.7 | 127 | > 167 | 96.3 | 10^−5 mol · l^−1 | 5 ± 1 |  |  | 10^−4 mol · l^−1 | 3 ± 2 | 86.7
OC[C@H]1O[C@@H](n2cnc3c(NCc4ccc(F)cc4F)ncnc32)[C@H](O)[C@@H]1O [2,4-difluorobenzylamino, 6-(2,4-difluorobenzylamino)purine riboside] | > 167 | 7.4 | > 167 | > 167 | 3.4 | 10^−4 mol · l^−1 | 171 ± 8 |  |  | 10^−4 mol · l^−1 | 88 ± 7 | 7.1
OC[C@H]1O[C@@H](n2cnc3c(NCc4ccccc4Br)ncnc32)[C@H](O)[C@@H]1O [2-bromobenzylamino, 6-(2-bromobenzylamino)purine riboside] | > 167 | 10 | > 167 | > 167 | 6.6 | 10^−5 mol · l^−1 | 86 ± 19 | 100 ± 4 | 10^−5 mol · l^−1 | 10^−4 mol · l^−1 | 147 ± 7 | 12.3
OC[C@H]1O[C@@H](n2cnc3c(NCc4ccc(F)cc4Cl)ncnc32)[C@H](O)[C@@H]1O [2-chloro-4-fluorobenzylamino, 6-(2-chloro-4-fluorobenzylamino)purine riboside] | > 167 | 11.7 | > 167 | > 167 | 9 |  |  | 98 ± 4 | 10^−5 mol · l^−1 | 10^−4 mol · l^−1 | 115 ± 1 | 20.9
OC[C@H]1O[C@@H](n2cnc3c(NCc4cc(F)cc(F)c4)ncnc32)[C@H](O)[C@@H]1O [3,5-difluorobenzylamino, 6-(3,5-difluorobenzylamino)purine riboside] | > 167 | > 167 | > 167 | > 167 | 9.1 | 10^−4 mol · l^−1 | 195 ± 14 | 95 ± 3 | 10^−6 mol · l^−1 | 10^−4 mol · l^−1 | 88 ± 1 | 24.5
COc1ccc(CNc2ncnc3c2ncn3[C@@H]2O[C@H](CO)[C@@H](O)[C@H]2O)cc1O [3-hydroxy-4-methoxybenzylamino, 6-(3-hydroxy-4-methoxybenzylamino)purine riboside] | > 167 | > 167 | > 167 | > 167 | > 167 | 10^−4 mol · l^−1 | 22 ± 5 |  |  | 10^−4 mol · l^−1 | 0 | > 167
OC[C@H]1O[C@@H](n2cnc3c(NCc4cccc(I)c4)ncnc32)[C@H](O)[C@@H]1O [3-jodobenzylamino, 6-(3-iodobenzylamino)purine riboside] |  |  |  |  |  | 10^−4 mol · l^−1 | 98 ± 4 | 47 ± 12 | 10^−6 mol · l^−1 | 10^−5 mol · l^−1 | 102 ± 18 | 
